According to patent publication US7838533B2, “Azaindole inhibitors of MTP and ApoB” (Merck Patent GmbH, priority 2004, dated 2010):

Columns and labels:
[1] = target: T1, microsomal triglyceride transfer protein (MTP) (Mesocricetus auratus, UniProt P55158); test: Inhibition of MTP activity: transfer of [3H]-triolein from donor liposomes to biotinylated LDL, SPA; type: biochemical; details: MTP from golden hamster liver; incubation 18-24 hours at 37° C.
T1 construct: The supernatant comprising the soluble MTP is dialysed; from tissue; host or cells: golden hamster liver microsomes, deoxycholate-solubilised supernatant
T1 sequence (P55158 19-895): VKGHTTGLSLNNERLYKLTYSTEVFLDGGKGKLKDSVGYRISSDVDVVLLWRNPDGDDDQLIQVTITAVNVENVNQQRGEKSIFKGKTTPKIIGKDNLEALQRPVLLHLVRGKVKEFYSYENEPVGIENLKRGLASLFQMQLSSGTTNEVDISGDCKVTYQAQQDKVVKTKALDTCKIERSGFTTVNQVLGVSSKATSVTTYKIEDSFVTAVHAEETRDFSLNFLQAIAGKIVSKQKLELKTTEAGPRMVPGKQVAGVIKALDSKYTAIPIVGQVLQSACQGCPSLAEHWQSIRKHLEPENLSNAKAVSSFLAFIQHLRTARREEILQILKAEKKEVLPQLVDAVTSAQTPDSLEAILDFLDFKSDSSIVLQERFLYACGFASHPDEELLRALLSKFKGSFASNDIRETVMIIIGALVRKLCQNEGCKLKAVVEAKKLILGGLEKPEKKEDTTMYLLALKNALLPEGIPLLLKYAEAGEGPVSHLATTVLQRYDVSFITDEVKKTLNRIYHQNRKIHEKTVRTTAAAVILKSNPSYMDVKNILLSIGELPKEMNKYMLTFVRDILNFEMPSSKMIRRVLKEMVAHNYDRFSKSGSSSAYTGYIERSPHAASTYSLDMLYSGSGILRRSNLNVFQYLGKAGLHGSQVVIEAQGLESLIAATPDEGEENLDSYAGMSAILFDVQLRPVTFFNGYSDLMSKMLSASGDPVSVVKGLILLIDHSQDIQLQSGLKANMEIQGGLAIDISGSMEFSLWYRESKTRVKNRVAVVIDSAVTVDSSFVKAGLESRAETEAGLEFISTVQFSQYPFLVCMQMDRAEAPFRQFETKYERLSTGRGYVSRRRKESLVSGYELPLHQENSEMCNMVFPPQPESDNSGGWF
Method: The inhibition of the activity of microsomal triglyceride transfer protein (MTP) was tested by using the following operating protocol.
The inhibition of MTP activity with a compound can be quantified by observing the inhibition of the transfer of a labelled triglyceride, from a donor particle to an acceptor particle, in the presence of MTP. The procedure for the preparation of MTP is based on the method by Wetterau and Zilversmit (Biochem. Biophys. Acta (1986) 875, 610). A few grams of golden hamster liver are taken and then rinsed several times in a 250 mM sucrose solution at 0° C. All the following steps proceed at +4° C. A homogenate at a concentration of 50% in 250 mM sucrose is prepared using a Teflon mill and then centrifuged for 10 minutes at 10 000×g at +4° C. The supernatant is then centrifuged at 105 000×g for 75 minutes at +4° C. The supernatant is discarded and the microsomal pellet is taken up in 3 ml (per g of starting liver) of Tris/HCl 150 mM pH 8.0. 1-ml aliquot fractions are stored at −80° C. until the time of use.
After thawing a fraction of microsomes (1 ml), 12 ml of refrigerated Tris/HCl 50 mM, KCl 50 mM, MgCl2 5 mM pH 7.4 buffers and 1.2 ml of deoxycholate (0.54% in water) are added. After incubation for 30 minutes at +4° C. with gentle agitation, the suspension is centrifuged at […] for 75 minutes. […]
The reaction mixture is prepared in untreated ½ well white plates (Corning Costar) by addition, in the following order, of: 5 μl of HEPES 50 mM, NaCl 150 mM, BSA 0.1% (w/v), 0.05% sodium azide (w/v), pH 7.4 buffer; 5 μl of liposomes; 5 μl of LDL-biot; 5 μl of test products in DMSO; 5 μl of MTP. After incubation for 18-24 hours at 37° C., the reaction is stopped adding 100 μl of Amersham SPA (Scintillation Proximity Assay) beads coupled to streptavidin, and the radioactivity is counted using a Top Count (Packard) machine at least one hour later. The inhibition of the transfer of the triglycerides with a compound is reflected by a reduction in the transferred radioactivity. […]

[2] = test system: apo B secretion in HepG2 cells; test: Inhibition of ApoB secretion in HepG2 cells, sandwich ELISA; type: cell-based; details: 24 hours incubation, ELISA specific for human apo B
Method: The activity of a compound according to the invention can be evaluated by measuring the inhibition of apo B secretion in HepG2 cells.
The HepG2 cells (ECACC No. 85011430) are used as model in the study of the in vitro hepatic secretion of lipoproteins (Dixon J. and Ginsberg H., J. Lipid. Res., 1993, 34, 167-179).
The HepG2 cells are cultured in Dulbecco's modified Eagle's medium comprising 10% foetal calf serum (DMEM and FBS-Gibco) in 96-well plates under an atmosphere of 5% carbon dioxide for 24 hours (about 70% confluence).
The test compounds are dissolved at a concentration of 2 or 10 mM in dimethyl sulfoxide (DMSO). Serial dilutions (1:3.16) are made in DMSO and are added (1:200—Robot Multimek Beckman) to the growth medium (200 μL) and then finally incubated for 24 hours in the various wells containing the HepG2 cells.
The 24-hour culture supernatant diluted to 1:5 (phosphate-buffered saline: PBS comprising 1% bovine serum albumin) is tested according to a sandwich-ELISA method specific for human apo B.
The results are expressed in terms of IC50, i.e. the concentration that produces a 50% inhibition of apo B secretion in the HepG2 cells.

IC50 [1] [µM]	IC50 [2] [µM]	SMILES
0.175	0.015	O=C(NCc1ccccc1)C(CCCCn1cc(-c2ccccc2)c2cccnc21)C1CCCCCC1 (stereo not drawn)
0.381	0.018	O=C(NCc1ccncc1)C(CCCCCn1cc(-c2ccccc2)c2cccnc21)C1CCCC1 (stereo not drawn)
0.529	0.003	CS(=O)(=O)c1ccc(CNC(=O)C(CCCCn2cc(-c3ccccc3)c3cccnc32)C2CCCCC2)cc1 (stereo not drawn)
